# Reference: patent US11739100B2, “2,3-dihydro-1h-imidazo{1,2-a}pyrimidin-5-one and this 1,2,3,4-tetrahydropyrimido{1,2-a}pyrimidin-6-one derivatives comprising a substituted morpholine, preparation thereof and pharmaceutical use thereof” (SANOFI, priority 2012, dated 2023)
# Target: T1, recombinant Vps34 (Homo sapiens, UniProt Q8NEB9)
# T1 construct: purchased Invitrogen PV5126
# Test: Phosphorylation of phosphatidylinositol (PI) by Vps34 in vitro, ADP detected by TR-FRET (HTRF Transcreener ADP)
# Assay type: biochemical
# Conditions: 10 μM ATP, 55 μg/ml PI, approximately 3 nM Vps34, 1 hour at ambient temperature; absolute IC50, mean of two independent experiments; read-out: IC50 activity range
# T1 sequence (Q8NEB9 whole entry): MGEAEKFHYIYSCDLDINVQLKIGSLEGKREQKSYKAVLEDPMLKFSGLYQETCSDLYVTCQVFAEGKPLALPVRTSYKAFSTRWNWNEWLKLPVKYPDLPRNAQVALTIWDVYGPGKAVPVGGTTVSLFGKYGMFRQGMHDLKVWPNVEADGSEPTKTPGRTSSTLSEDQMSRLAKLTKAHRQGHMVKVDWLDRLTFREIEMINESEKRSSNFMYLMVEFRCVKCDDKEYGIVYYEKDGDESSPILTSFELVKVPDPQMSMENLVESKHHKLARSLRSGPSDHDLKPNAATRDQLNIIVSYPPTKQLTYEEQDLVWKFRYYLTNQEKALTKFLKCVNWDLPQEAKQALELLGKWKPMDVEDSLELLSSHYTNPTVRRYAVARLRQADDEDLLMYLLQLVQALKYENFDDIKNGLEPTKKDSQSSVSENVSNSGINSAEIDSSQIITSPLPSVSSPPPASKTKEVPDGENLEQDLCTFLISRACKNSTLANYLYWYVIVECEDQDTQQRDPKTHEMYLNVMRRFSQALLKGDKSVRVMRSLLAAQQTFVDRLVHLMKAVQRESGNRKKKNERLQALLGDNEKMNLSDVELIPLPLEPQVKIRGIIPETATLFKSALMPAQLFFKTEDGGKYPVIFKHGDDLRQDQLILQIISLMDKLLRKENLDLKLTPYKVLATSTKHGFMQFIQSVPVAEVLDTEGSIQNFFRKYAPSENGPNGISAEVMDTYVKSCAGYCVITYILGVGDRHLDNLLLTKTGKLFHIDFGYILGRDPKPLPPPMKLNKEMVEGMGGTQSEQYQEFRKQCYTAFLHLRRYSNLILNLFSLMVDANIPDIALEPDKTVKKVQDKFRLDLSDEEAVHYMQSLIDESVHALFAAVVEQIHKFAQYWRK
row,IC50 [µM],SMILES
1,< 0.01,"CC(C)C(=O)CN1c2nc(N3CCOC[C@H]3C)c(F)c(=O)n2CC[C@H]1C(F)(F)F [Example 4, (S)-3-Fluoro-2-((R)-3-methylmorpholin-4-yl)-9-(3-methyl-2-oxo-butyl)-8-trifluoromethyl-6,7,8,9-tetrahydro-pyrimido[1,2-a]-pyrimidin-4-one]"
2,< 0.01,"C[C@@H]1COCCN1c1nc2n(c(=O)c1F)C[C@@](C)(C(F)(F)F)N2CC(=O)C1CCOCC1 [Example 186, (S)-6-Fluoro-2-methyl-7-((R)-3-methyl-morpholin-4-yl)-1-[2-oxo-2-(tetrahydro-pyran-4-yl)ethyl]-2-trifluoromethyl-2,3-dihydro-1H-imidazo[1,2-a]-pyrimidin-5-one]"
3,< 0.01,"Cc1nc(CN2c3nc(N4CCOC[C@H]4C)c(F)c(=O)n3CC[C@H]2C(F)(F)F)no1 [Example 15, (S)-3-Fluoro-2-((R)-3-methylmorpholin-4-yl)-9-(5-methyl-[1,2,4]oxadiazol-3-yl-methyl)-8-trifluoromethyl-6,7,8,9-tetrahydro-pyrimido[1,2-a]-pyrimidin-4-one]"
4,0.01 to 0.1,"Cc1nc(CN2c3nc(N4CC5CCC(C4)O5)cc(=O)n3CC[C@H]2C(F)(F)F)no1 [Example 270, (S)-9-(5-Methyl-[1,2,4]oxadiazol-3-yl-methyl)-2-(8-oxa-3-azabicyclo[3.2.1]oct-3-yl)-8-trifluoromethyl-6,7,8,9-tetrahydro-pyrimido[1,2-a]-pyrimidin-4-one]"
5,0.01 to 0.1,"C[C@@H]1COCCN1c1cc(=O)n2c(n1)N(Cc1ncco1)[C@H](C(F)(F)F)CC2 [Example 77, (S)-2-((R)-3-Methyl-morpholin-4-yl)-9-oxazol-2-ylmethyl-8-trifluoromethyl-6,7,8,9-tetrahydro-pyrimido[1,2-a]-pyrimidin-4-one]"
6,< 0.01,"CON(C)C(=O)CN1c2nc(N3CCOC[C@H]3C)cc(=O)n2CC[C@H]1C(F)(F)F [Example 196, N-Methoxy-N-methyl-2-[(S)-8-((R)-3-methyl-morpholin-4-yl)-6-oxo-2-trifluoromethyl-3,4-dihydro-2H,6H-pyrimido[1,2-a]-pyrimidin-1-yl]-acetamide]"
7,< 0.01,"C[C@@H]1COCCN1c1cc(=O)n2c(n1)N(Cc1ccc(F)cn1)[C@H](C(F)(F)F)CC2 [Example 92, (S)-9-(5-Fluoropyridin-2-ylmethyl)-2-((R)-3-methylmorpholin-4-yl)-8-trifluoromethyl-6,7,8,9-tetrahydro-pyrimido[1,2-a]-pyrimidin-4-one]"
8,< 0.01,"CCC(=O)CN1CC[C@H](C(F)(F)F)n2c1nc(N1CCOC[C@H]1C)c(F)c2=O [Example 29, (R)-3-Fluoro-2-((R)-3-methylmorpholin-4-yl)-9-(2-oxobutyl)-6-trifluoromethyl-6,7,8,9-tetrahydro-pyrimido[1,2-a]-pyrimidin-4-one]"
9,0.01 to 0.1,"O=c1cc(N2CC3CCC(C2)O3)nc2n1CC[C@@H](C(F)(F)F)N2Cc1ccnn1C(F)F [Example 166, (S)-9-(2-Difluoromethyl-2H-pyrazol-3-ylmethyl)-2-(8-oxa-3-aza-bicyclo[3.2.1]oct-3-yl)-8-trifluoromethyl-6,7,8,9-tetrahydro-pyrimido[1,2-a]-pyrimidin-4-one]"
10,0.01 to 0.1,"C[C@@H]1COCCN1c1cc(=O)n2c(n1)N(Cc1cnc(Cl)s1)[C@H](C(F)(F)F)CC2 [Example 34, (S)-9-(2-Chloro-thiazol-5-ylmethyl)-2-((R)-3-methyl-morpholin-4-yl)-8-trifluoromethyl-6,7,8,9-tetrahydro-pyrimido[1,2-a]-pyrimidin-4-one]"
11,< 0.01,"COc1cc(N2CC[C@H](C(F)(F)F)n3c2nc(N2CCOC[C@H]2C)c(F)c3=O)ccn1 [Example 119, (R)-3-Fluoro-9-(2-methoxypyridin-4-yl)-2-((R)-3-methyl-morpholin-4-yl)-6-trifluoromethyl-6,7,8,9-tetrahydro-pyrimido[1,2-a]-pyrimidin-4-one]"
12,0.01 to 0.1,"C[C@H]1COCCN1c1nc2n(c(=O)c1F)CC[C@@H](C(F)(F)F)N2CC(=O)C1CC1 [Example 321, (S)-9-(2-Cyclopropyl-2-oxoethyl)-3-fluoro-2-((S)-3-methyl-morpholin-4-yl)-8-trifluoromethyl-6,7,8,9-tetrahydropyrimido-[1,2-a]pyrimidin-4-one]"
13,0.01 to 0.1,"C[C@@H]1COCCN1c1cc(=O)n2c(n1)N(CC(=O)N1CCOCC1)[C@H](C(F)(F)F)CC2 [Example 234, (S)-2-((R)-3-Methyl-morpholin-4-yl)-9-(2-morpholin-4-yl-2-oxo-ethyl)-8-trifluoromethyl-6,7,8,9-tetrahydro-pyrimido[1,2-a]-pyrimidin-4-one]"
14,< 0.01,"C[C@@H]1COC[C@@H](C)N1c1cc(=O)n2c(n1)N(Cc1ncco1)[C@H](C(F)(F)F)CC2 [Example 158, (S)-2-((3R,5R)-3,5-Dimethylmorpholin-4-yl)-9-oxazol-2-yl-methyl-8-trifluoromethyl-6,7,8,9-tetrahydro-pyrimido[1,2-a]-pyrimidin-4-one]"
15,< 0.01,"Cc1noc(CN2c3nc(N4CCOC[C@H]4C)c(F)c(=O)n3C[C@@]2(C)C(F)(F)F)n1 [Example 207, (S)-6-Fluoro-2-methyl-7-((R)-3-methyl-morpholin-4-yl)-1-(3-methyl-[1,2,4]oxadiazol-5-yl-methyl)-2-trifluoromethyl-2,3-dihydro-1H-imidazo[1,2-a]-pyrimidin-5-one]"
16,< 0.01,"C[C@@H]1COCCN1c1nc2n(c(=O)c1F)[C@@H](C(F)(F)F)CCN2Cc1nc(C(F)(F)F)no1 [Example 28, (R)-3-Fluoro-2-((R)-3-methylmorpholin-4-yl)-6-trifluoromethyl-9-(3-trifluoromethyl-[1,2,4]oxadiazol-5-yl-methyl)-6,7,8,9-tetrahydro-pyrimido[1,2-a]-pyrimidin-4-one]"
17,< 0.01,"C[C@@H]1COCCN1c1cc(=O)n2c(n1)N(Cc1ccnc(Cl)c1)CC[C@@H]2C(F)(F)F [Example 112, (R)-9-(2-Chloro-pyridin-4-ylmethyl)-2-((R)-3-methyl-morpholin-4-yl)-6-trifluoromethyl-6,7,8,9-tetrahydro-pyrimido[1,2-a]-pyrimidin-4-one]"
18,< 0.01,"CC(C)Oc1ccc(N2CC[C@H](C(F)(F)F)n3c2nc(N2CCOC[C@H]2C)cc3=O)cn1 [Example 116, (R)-9-(6-Isopropoxy-pyridin-3-yl)-2-((R)-3-methylmorpholin-4-yl)-6-trifluoromethyl-6,7,8,9-tetrahydro-pyrimido[1,2-a]-pyrimidin-4-one]"
19,< 0.01,"C[C@@H]1COCCN1c1nc2n(c(=O)c1F)CC[C@@H](C(F)(F)F)N2Cc1noc(C2CC2)n1 [Example 247, (S)-9-(5-Cyclopropyl-[1,2,4]oxadiazol-3-yl-methyl)-3-fluoro-2-((R)-3-methyl-morpholin-4-yl)-8-trifluoromethyl-6,7,8,9-tetrahydro-pyrimido[1,2-a]-pyrimidin-4-one]"
